Measured values published in article PMC9218946, “Identification of a Subtype-Selective Allosteric Inhibitor of GluN1/GluN3 NMDA Receptors” (Frontiers in Pharmacology, 2022).
Structures can show the parent of a compound that is named as a salt.

Assays:
GluN1/GluN3A receptors [1] = molecular target: T1, GluN1/GluN3A receptors (UniProt Q05586+Q9R1M7); experiment: High-throughput Fluo-4 calcium assay (FDSS/μCell) in HEK-293 cells stably expressing GluN1/GluN3A; type: cell-based, human GluN1-1a, rat GluN3A; parameters: expressed in transfected cells; conditions: primary and secondary screening
Description: The HEK-293 cells stably expressing GluN1/GluN3A receptors were seeded at a density of 10,000 cells/well in the 384-well plates, and expression was induced with 1 μg/ml doxycycline for 24–28 h. Then the culture medium was removed, Fluo-4 (Invitrogen) was loaded and the cells were incubated in the 37°C incubator away from light for 1 h ([Gee et al., 2000]). The plates were gently washed twice with Ca^2+-free buffer and then incubated with one of the 2560 compounds (from the Chinese National Compound Library) or DMSO (1% and 0.33%) for 20 min. A fixed concentration of 30 μM and dual concentrations of 10 μM and 30 μM were applied in the primary and secondary screening, respectively. Two replicates were set up for each condition. […] A FDSS/μCell platform (Hamamatsu) was used to measure the fluorescence signals. The excitation (Ex) and emission (Em) wavelengths were set to 480 and 540 nm, respectively. The inhibitory effects of tested compounds were compared by the ratios of fluorescence (F) with (F drug) and without (F control) the compounds. The F control value in these assays represented the value of basal Fluo-4 fluorescence plus glycine-stimulated fluorescence, and the F drug indicated the total Fluo-4 fluorescence after treatment of the drugs. Both the F drug and F control values were taken at the peak. The Ca^2+-free buffer used to dilute Fluo-4 and wash cell-plates contained (in mM): 140 NaCl, 5 KCl, 1 MgCl2, 10 glucose, 10 HEPES, and 0.5 EGTA. The pH was adjusted to 7.2 using NaOH. To dilute the compounds, 2 mM of free Ca^2+ was added in addition to the other components of the buffer.

GluN1/GluN3A receptors [2] = molecular target: T1, GluN1/GluN3A receptors; experiment: Whole-cell patch-clamp recording on GluN1/GluN3A Flp-in T-REx 293 stable cell lines; type: cell-based, human GluN1-1a, rat GluN3A; parameters: expressed in transfected cells; conditions: for remaining activity at 3 µM: Flp-In-T-REx-293, read-out: I drug/I control; for I drug/I control: 3 μM compound, whole-cell patch-clamp, mean ± SEM, drug application order as in FDSS/μCell Ca2+ imaging (CGP-78608, then glycine)
Description: To establish GluN1/GluN3A stable cell lines, the human GluN1-1a (GenBank: NP_015566.1) and the rat GluN3A (GenBank: NP_612555.1) genes were subcloned into the pcDNA5-FRT-To and pcDNA3.1 vectors, respectively. An EGFP tag was added to the C-terminus of GluN1 or GluN3A using a T2A linker for identification of transfected cells during transient transfection. Point mutations were introduced by site-directed mutagenesis using PrimeSTAR (Takara). The human GluN2A (GenBank: NP_000824.1) gene was subcloned into the pcDNA3.1 vector. The chimeras GluN3A^670-673 MWPL/LEPF and GluN2A^550-553 LEPF/MWPL were generated using In-Fusion HD Cloning kits (Takara). All constructs were confirmed by DNA sequencing (Beijing Genomics Institute).
The Flp-in T-Rex 293 cell lines (Invitrogen), stably expressing GluN1/GluN3A were grown in DMEM basal medium (Gibco) supplemented with 10% fetal bovine serum (FBS, Invitrogen), 15 μg/ml blasticidin S (Invitrogen), 50 μg/ml hygromycin B (Invitrogen) and 500 μg/ml G418 (Gibco). Expression in cell lines was induced with 1 μg/ml doxycycline (Invitrogen) 24–28 h prior to the experiments. Chinese hamster ovary (CHO) cells were grown in DMEM-F12 basal medium (Gibco) supplemented with 10% FBS. In the study on the action sites of WZB117, all whole-cell patch-clamp recordings were performed on CHO cells. The transfections were carried out using Lipofectamine 3000 transfection reagent (Thermo Fisher) according to the manufacturer’s instructions. All cells mentioned above were cultured in a 5% CO2 incubator at 37°C and passaged every other day at a ratio of 1:3.
Whole-cell patch-clamp recordings were performed at room temperature (22–25°C) using an EPC-10 amplifier and Patch Master Software (HEKA). Pipettes were pulled from borosilicate glass capillaries (World Precision Instruments), and the resistances were 3–5 MΩ when filled with the intracellular solution. The extracellular solution contained (in mM): 140 NaCl, 2.8 KCl, 1 CaCl2, 10 HEPES and 20 sucrose (290–300 mOsm), pH adjusted to 7.3 using NaOH. The pipette solution contained (in mM): 115 CsF, 10 CsCl, 10 HEPES and 10 BAPTA (280–290 mOsm), pH adjusted to 7.2 using CsOH ([Grand et al., 2018]). When recording in hippocampal neurons, the extracellular solution contained (in mM): 140 NaCl, 5 KCl, 1 CaCl2, 1.25 MgCl2, 10 glucose, and 10 HEPES, and the pH was adjusted to 7.4 using NaOH, and the pipette solution contained (in mM): 140 KCl, 1 MgCl2, 10 EGTA, and 10 HEPES, and the pH was adjusted to 7.2 using KOH ([Xie et al., 2020]). Drug-containing solutions were applied through an RSC-200 Rapid Solution Changer with a 9-tube head (BioLogic Co., France), in which the cell is positioned close to the output of a capillary. The solution, containing either one drug or a combination of different drugs, to be assayed flows out of the capillary at a moderate flow rate by gravity. The lifted cell, exposed to this stream, rapidly equilibrates in the perfusion solution. Whole-cell patch-clamp recordings in heterologous cells and hippocampal neurons were performed at a holding potential of −60 mV. Currents were sampled at 10 kHz and low pass filtered at 2.9 kHz. To record the native GluN1/GluN3 receptor-mediated currents, the extracellular solution was supplemented with 10 μM bicuculline (Sigma-Aldrich), 2 μM NBQX (Topscience), 100 μM D-APV (MCE), and 50 μM strychnine (UHN Shanghai) to block γ-aminobutyric acid type A (GABAA), α-amino-3-hydroxy-5-methylisoxazole-4-propionate (AMPA), GluN1/GluN2 NMDA and glycine receptors, respectively. To record the native GluN2-NMDARs-mediated currents, 10 μM bicuculline and 2 μM NBQX were added into the extracellular solution to block GABAA receptors and AMPA receptors, respectively ([Grand et al., 2018]; [Otsu et al., 2019]; [Zhu et al., 2020]).
Patch-clamp data were processed using Clampfit 10.4 (Molecular Device, Sunnyvale, CA, United States) and analyzed with GraphPad Prism 5.0 (GraphPad Software, San Diego, CA, United States). […]

GluN1/GluN3 receptors = molecular target: GluN1/GluN3 receptors; parameters: method as in Zhu et al., 2020; conditions: ref Zhu et al., 2020; cited from earlier work
GluN3A = conditions: ref Yao and Mayer, 2006; cited from earlier work

T1 sequence (Q9R1M7 24-1135, other chains not shown): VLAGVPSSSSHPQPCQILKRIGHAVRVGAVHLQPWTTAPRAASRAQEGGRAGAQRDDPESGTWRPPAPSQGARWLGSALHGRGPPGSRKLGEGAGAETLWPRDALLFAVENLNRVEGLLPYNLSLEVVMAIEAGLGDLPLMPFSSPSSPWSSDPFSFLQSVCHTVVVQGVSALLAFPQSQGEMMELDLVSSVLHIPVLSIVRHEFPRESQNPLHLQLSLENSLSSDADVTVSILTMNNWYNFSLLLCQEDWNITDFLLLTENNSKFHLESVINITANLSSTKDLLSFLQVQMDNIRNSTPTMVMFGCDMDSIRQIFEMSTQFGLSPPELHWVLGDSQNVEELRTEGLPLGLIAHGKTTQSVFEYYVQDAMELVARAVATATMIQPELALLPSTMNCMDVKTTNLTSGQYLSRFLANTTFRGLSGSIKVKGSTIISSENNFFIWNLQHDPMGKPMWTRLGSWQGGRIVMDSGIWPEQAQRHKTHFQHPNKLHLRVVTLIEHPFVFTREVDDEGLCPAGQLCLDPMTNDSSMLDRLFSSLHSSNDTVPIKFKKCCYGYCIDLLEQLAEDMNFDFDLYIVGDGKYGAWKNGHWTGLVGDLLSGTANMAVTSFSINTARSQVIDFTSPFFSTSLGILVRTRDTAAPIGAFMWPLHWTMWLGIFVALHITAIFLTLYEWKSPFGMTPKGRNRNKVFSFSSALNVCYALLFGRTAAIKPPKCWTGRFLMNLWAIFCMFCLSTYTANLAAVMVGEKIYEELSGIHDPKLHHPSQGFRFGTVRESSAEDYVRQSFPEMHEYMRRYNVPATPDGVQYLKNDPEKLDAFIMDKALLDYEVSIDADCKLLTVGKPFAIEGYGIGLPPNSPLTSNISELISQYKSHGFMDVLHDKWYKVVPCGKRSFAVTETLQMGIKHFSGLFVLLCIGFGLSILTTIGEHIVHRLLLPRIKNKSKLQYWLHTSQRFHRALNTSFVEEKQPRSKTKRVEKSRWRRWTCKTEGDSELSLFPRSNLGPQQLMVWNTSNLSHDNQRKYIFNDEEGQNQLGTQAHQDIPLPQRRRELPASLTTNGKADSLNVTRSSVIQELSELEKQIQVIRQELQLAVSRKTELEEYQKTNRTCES

Compound | remaining activity at 3 µM (GluN1/GluN3A receptors [2]) | further results
O=C(O)c1cc(=O)c2c(Cl)cc(Cl)cc2[nH]1 [5,7-DCKA] | – | identification in HTS (GluN1/GluN3A receptors [1]): identified in both the primary screening and secondary screening
CC(C)c1cc(C(C)C)c(CC(=O)NS(=O)(=O)Oc2c(C(C)C)cccc2C(C)C)c(C(C)C)c1 [Avasimibe] | 86 ± 3% | –
N[C@H](CO)C(=O)O [D-serine] | – | identification in HTS (GluN1/GluN3A receptors [1]): identified in both the primary screening and secondary screening
COc1ccc(OCC(c2ccc(OC)cc2)N2Cc3ccccc3C2=O)cc1 (stereo not shown) [EU1180-438] | – | IC50 (GluN1/GluN3 receptors): 1800 ± 300 nM
COc1cc(OC)c(C=C2C(O)=Nc3ccccc32)c(OC)c1 [IC261] | 88 ± 1% | –
COc1ccc(S(=O)(=O)N(CCO)c2ccccc2CN(C)C/C=C/c2ccc(Cl)cc2)cc1.O=P(O)(O)O [KN93 Phosphate] | – | I drug/I control (GluN1/GluN3A receptors [2]): 0.90 ± 0.02
O=c1[nH]c2cc(Cl)ccc2c(O)c1-c1cccc(Oc2ccccc2)c1 [L-701324] | – | identification in HTS (GluN1/GluN3A receptors [1]): identified in both the primary screening and secondary screening
NC(=O)N1CCC(CC(=O)N2CCC([C@H]3c4ncc(Br)cc4CCc4cc(Cl)cc(Br)c43)CC2)CC1 [Lonafarnib] | 98 ± 2% | –
CCCCCCCCCCCCCCCCn1cc[n+](Cc2ccccc2)c1C.[I-] [NH125] | – | I drug/I control (GluN1/GluN3A receptors [2]): 0.84 ± 0.03
O=C(O)c1cc(O)c2c(c1)C(=O)c1cccc(O)c1C2=O [Rhein] | 80 ± 4% | –
Nc1n[n+]([O-])c2ccccc2[n+]1[O-] [Tirapazamine] | 103 ± 5% | –
CCOC(=O)Nc1ccc(NCc2ccc(F)cc2)nc1N [flupirtine maleate] | – | identification in HTS (GluN1/GluN3A receptors [1]): identified in both the primary screening and secondary screening
NCC(=O)O [glycine] | – | higher affinity for GluN3A than for GluN1 (GluN3A): 650 fold
Nc1nc2ccc(OC(F)(F)F)cc2s1 [riluzole] | – | identification in HTS (GluN1/GluN3A receptors [1]): identified in both the primary screening and secondary screening

Further lines, with some results ahead:

remaining activity at 3 µM (GluN1/GluN3A receptors [2]) | Compound | further results
84 ± 4% | CNc1nc(-c2ccc3c(N)n[nH]c3c2)cc(N2C[C@@H](C(=O)NC3CCCCC3)CC[C@H]2C)n1 [GSK2334470] | –
48 ± 2% | Cc1ccc(CN(Cc2ccc(-c3ccccc3S(=O)(=O)NC#N)cc2)C(=O)c2ccccc2Cl)cc1 [S0859, 2-chloro-N-[2'-(N-cyanosulfamoyl)biphenyl-4-ylmethyl]-N-(4-methylbenzyl) benzamide] | –
89 ± 4% | Cc1[nH]c(/C=C2\C(=O)Nc3ccccc32)c(C)c1CCC(=O)O [SU6668] | –
92 ± 6% | CC(C)(O)CC(=O)NCCn1ccc2ncnc(Nc3ccc(Oc4cccc(C(F)(F)F)c4)c(Cl)c3)c21 [TAK285] | –
53 ± 2% | Oc1ccc(-c2nc3cc(O)cc(Br)c3o2)cc1 [WAY200070, 7-bromo-2-(4-hydroxyphenyl) benzoxazol-5-ol] | –
